Patent US20220380430A1, “Non-Transgenic Functional Rescue of Neuropeptides” (Worcester Polytechnic Institute, priority 2021, published 2022)
No end group written: not given here.

Tested on: ins-6 lof worms
Experiment: NaCl chemotaxis assay after rescue-by-feeding
Assay type: in vivo, C. elegans
Settings: ins-6 mutants; 750 mM NaCl
Protocol: All animals were maintained on bacterial lawns of OP50 E. coli, at 20° C., on NGM agar plates until the start of experiments. Mutant or control animals were transferred onto lawns of DH5α E. coli expressing either scramble peptide or the rescue peptide-of-interest on NGM plates containing […] AMP and 1 mM IPTG. Animals were reared on the peptide-expressing lawns for at least 48 hours at 20° C. before assaying for rescue of mutant phenotype at the appropriate developmental stage.
A salt chemotaxis assay was performed as previously described in Leinwand, S. G. & Chalasani, S. H. Nature neuroscience 16, 1461-1467 (2013); Bargmann, C. I. & Horvitz, H. R. Neuron 7, 729-742 (1991) to test the functionality of ins-6 after rescue-by-feeding. Wild-type (N2) and ins-6 worms were fed either scramble or INS-6 peptide passing 4-6 L4 larval onto an NGM plate containing […] AMP and 1 mM IPTG with 75 μL of peptide OD600=1.0. These worms were grown at 20° C. for about 4 days until the progeny of the initial L4 worms were young adults.
The day prior to testing, a thin, 10 mL layer of agar was added to 10 cm petri dishes to generate a 10 cm Chemotaxis Plates (5 mM KPO4 (pH 6.0), 1 μM MgSO4, 1 μM CaCl2), 20 g/L agar, and 8 g/L Difco Nutrient Broth). To prepare the “high salt” plates, 750 mM NaCl was added prior to plate pouring. The high salt plate were stored at 4° C. for up to one month, while the Chemotaxis Plates were made one day prior to testing. To create the high and low salt plugs, the back end of a Pasteur pipette was used to punch a 5 mm plug out of each plate. These 2 plugs were placed on opposite edges of the plate. A 10 mm radius was be drawn around the location of the plugs (FIG. 1). Plates were stored, lightly covered, overnight at room temperature (˜20° C., <40% humidity). […]
Young adult hermaphrodites are tested in the Chemotaxis Assay with no more than three replicates per day, over a minimum of three days, with 100-200 worms/assay plate. The […] Chemotaxis Index (CI) was calculated as follows: […]

Q: “NSKLHRGGGRSRTSGSTGSMASHARGSPGLQ-NH2 [SCRAMBLE, scramble control peptide expressed in E. coli DH5α, negative control, reference compound]” was tested. Which “Chemotaxis Index” value did it give?
A: less than 0.4
